This is an account of results in PubChem BioAssay AID464 (The Scripps Research Institute Molecular Screening Center, 2006).

Each structure is given as a SMILES string. Calls of active or inactive are those of the source.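 The calls were made as follows: active = Compounds that kill half the cells at a concentration of 5 micromolar or below, from the fitted or estimated CC50; inactive = CC50 above 5 micromolar.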 Bounds are passed on as bounds.

This test relates to Jurkat E6.1 viability, ATP luminescence, 48 h. The test can be described thus: viability loss in Jurkat T cells – cell-based, ATP luminescence, 48 h, 60K MLSMR, cytotoxicity control, dose response (AID 464).
Turning to `CCCCCN=Cc1c(C)[nH]n(-c2nc3ccccc3s2)c1=O`, the CC50 is 6.35 µM (inactive). For `Cc1ccc(C)c2[nH]c(=O)c(CN(CCN3CCCC3)C(=O)Nc3cccc(Cl)c3)cc12` the value was > 40 µM (inactive); for `COc1ccccc1N1CCN(C(=O)CSc2nnc3n2C(C)(C)Cc2ccccc2-3)CC1`, 4.67 µM; for `CCCCNc1cc(C)nc(NCc2ccccc2)n1`, 10.5 µM (inactive). As for `C=C(C)COc1ccc(-c2[nH]ncc2-c2ccc(OC)c(OC)c2)c(O)c1`, the CC50 is 0.782 µM. Consider `Cc1nn(-c2nc3ccccc3s2)c(C)c1Oc1ccccc1O`, for which the CC50 is > 40 µM (inactive). For the compound `COC(=O)C1=C(C)N(c2ccc(Cl)c(Cl)c2)C(=O)C1`, the CC50 was 5.37 µM (inactive). Consider `COc1cc(C(=O)OCC(=O)c2cc(C)n(C)c2C)cc(OC)c1OC`, for which the CC50 was > 4.4 µM (inactive). `CCCCNc1ncnc2c1cnn2-c1ccc(Cl)cc1`: the half-maximal cytotoxic concentration (CC50) is 2.56 µM. In the case of `CCOC(=O)c1oc2ccc(S(=O)(=O)Nc3ccc4c(c3)n(C)c(=O)n4C)cc2c1C`, the CC50 was 11.3 µM (inactive). Take `COc1ccc(NS(=O)(=O)c2cc(OC)ccc2NC(=O)c2cc(C)oc2C)cc1`: the CC50 is 2.25 µM. On to `Cc1ccc(O)c(NC(=O)CCC2CCCCC2)c1`, for which the CC50 was 6 µM (inactive). In the case of `Cc1cc(NO)nc(-c2ccc(Br)cc2)n1`, the CC50 is > 40 µM (inactive). For `Oc1c(CN2CCCCC2)cc(COCc2ccccc2)c2cccnc12` the value was 3.31 µM. The value for `COc1cccc(C(=O)/C=C/Nc2cc(C)ccc2O)c1` was 2.95 µM. The value for `CCOc1ccc(-c2cc(C(=O)O)c3ccccc3n2)c(OCC)c1` was > 40 µM (inactive). Turning to `COCCOC(=O)c1[nH]c2c(c1C)C(=O)CC(c1cc(OC)ccc1OC)C2` (centres undefined), the CC50 was 4.2 µM. Take `COc1ccc(Nc2nc(N3CCCC3)nc3ccccc23)c(OC)c1`: the CC50 is 21.9 µM (inactive). For `Cn1c(=O)n(C)c2cc(NS(=O)(=O)c3ccc4c(c3)CCCC4)ccc21`, the CC50 is 8.18 µM (inactive). Regarding `O=C(Nc1nc2ccc(S(=O)(=O)N3CCCC3)cc2s1)C1CCCCC1`, the CC50 was 3.73 µM. Take `CCn1c(-c2ccc(N(C)C)cc2)nc2ccccc21`: the CC50 was 5.93 µM (inactive).

Take `CCOc1ccccc1C1CC(=O)Nc2cc3c(cc21)OCCO3` (centres undefined): the CC50 was 0.625 µM. Take `O=S(=O)(Nc1cccc2ncccc12)c1cccs1`: the CC50 was 6.36 µM (inactive). As to `CN1Cc2cc(C(=O)c3cc(Cl)cc(CSc4ncccn4)c3O)cnc2NC1=O`, the CC50 is 0.212 µM.

With `O=C(Nc1ccccc1)N1CCC(c2nc(-c3ccc(S(=O)(=O)N4CCOCC4)cc3)no2)CC1`, the CC50 is > 40 µM (inactive). For the compound `Cc1ccc2c(c1)nnn2C1CCN(S(=O)(=O)c2ccc(C(=O)N3C(C)CCCC3C)cc2)CC1` (centres undefined), the CC50 was 9.39 µM (inactive). In the case of `O=C(CN1CCC(c2nc3ccccc3s2)CC1)NCc1cccs1`, the CC50 is 18 µM (inactive). On to `Cc1cc(NC(=O)CSc2nc(-c3cccs3)cc(C(F)(F)F)n2)no1`, for which the cytotoxic concentration (CC50) is 0.264 µM. On to `CCCn1nc(C(=O)N2CC(=O)Nc3ccccc32)c2ccccc2c1=O`, for which the CC50 was 2.81 µM.

Consider `Cc1cc(C(=O)Nc2sc3c(c2C#N)CCC3)no1`, for which the CC50 was 6.7 µM (inactive). For `CCCCN(CC)S(=O)(=O)c1ccc(C(=O)Nc2nnc(CSC)o2)cc1`, the CC50 was 37.6 µM (inactive). The value for `O=C(O)C1CC=CCC1C(=O)Nc1ccc(S(=O)(=O)N2CCCc3ccccc32)cc1` (centres undefined) was > 40 µM (inactive); that for `Cc1cc(C)n(-c2nc3ccccc3c(=O)n2OCC(=O)OCc2ccccc2)n1` was 9.76 µM (inactive).

Consider `COc1cc(C)c(Cl)cc1S(=O)(=O)NCc1ccncc1`, for which the CC50 is 3.1 µM.

On to `O=C(c1cc(-c2ccc(O)cc2)on1)N1CCc2ccccc2C1`, for which the CC50 was > 40 µM (inactive).

Regarding `Cc1ccc(Oc2ccc(S(=O)(=O)N3CCOCC3)cc2C(N)=O)c(-n2nc3ccccc3n2)c1`, the CC50 is 2.31 µM. On to `c1ccc(CNc2ncnc3c2cnn3-c2ccccc2)cc1`, for which the CC50 is 3.54 µM. With `CCCCn1c(CN(C)Cc2ccccc2)nc2c1c(=O)n(C)c(=O)n2C`, the CC50 is 14.8 µM (inactive). On to `O=C(Nc1nc(-c2ccccn2)cs1)c1ccc(S(=O)(=O)N2CCCCC2)cc1`, for which the CC50 is 8.99 µM (inactive). For `Cc1ccc(S(=O)(=O)C2(S(=O)(=O)c3ccc(C)cc3)CCCC2)cc1`, the CC50 was 3.23 µM.

Take `CCc1nnc(NC(=O)CSc2nc3cccnc3n2C2CCCCC2)s1`: the CC50 is > 40 µM (inactive). The value for `O=C(Cn1cnc2sc(-c3ccccc3)cc2c1=O)NCc1ccco1` was 6 µM (inactive); that for `C(=C\c1ccccc1)/CSc1nnc(-c2ccccn2)n1Cc1ccco1` was 2.28 µM. As to `Cc1ccc(C)c(S(=O)(=O)Nc2ccc3scnc3c2)c1`, the 50% cytotoxic concentration (CC50) is 3.08 µM.

`Cc1ccc(C(=O)N2CCN(c3cccc(Cl)c3)CC2)cc1C`: the CC50 was 19.1 µM (inactive). In the case of `COc1cc(Cn2c(-c3nonc3N)nc3ccccc32)ccc1C`, the CC50 is 1.55 µM. `Clc1ccc(Cn2ncc3c(NCc4ccco4)ncnc32)c(Cl)c1`: the CC50 was 3.8 µM. With `O=C(CCn1c(=O)oc2ccccc21)N1CCN(c2ccccc2Cl)CC1`, the CC50 is 5.77 µM (inactive).

Consider `CCOC(=O)C(C)Sc1nc2c(cnn2-c2ccc(C)cc2)c(=O)[nH]1` (centres undefined), for which the CC50 was > 40 µM (inactive). Turning to `CCOc1ccccc1NC(=O)c1cccc(NC(=O)c2ccco2)c1`, the half-maximal cytotoxic concentration (CC50) was 1.27 µM. Regarding `Cc1ccccc1OCC(=O)Nc1ccc(N2CCN(C(=O)C(C)C)CC2)c(Cl)c1`, the CC50 was > 40 µM (inactive). As to `Oc1c(CN2CCN(c3ccccn3)CC2)cc(Cl)c2cccnc12`, the half-maximal cytotoxic concentration (CC50) is 2.85 µM.

Take `Cc1ccnc(NC(=O)CCCOc2cc(=O)n(C)c3ccccc23)c1`: the CC50 was 5.58 µM (inactive). As to `Cn1c(CN2CCOCC2)nc2cc(NC(=O)c3ccc(Cl)cc3)ccc21`, the 50% cytotoxic concentration (CC50) was 1.26 µM. The value for `CCOC(=O)C1=C(N)n2c(s/c(=C\c3ccco3)c2=O)=C(C(=O)OCC)C1c1ccco1` (centres undefined) was 6.77 µM (inactive); that for `CC(=O)c1c(C)[nH]c(C(=O)OCCCCN2C(=O)c3ccccc3C2=O)c1C` was > 40 µM (inactive). As to `Cn1c(C(=O)NCCc2c[nH]c3ccccc23)cc2sccc21`, the CC50 is > 40 µM (inactive). Turning to `COC(=O)c1ccc(Cl)c(NS(=O)(=O)c2ccc3c(c2)OCCO3)c1`, the CC50 is 4.81 µM.

For the compound `COc1ccc(NS(=O)(=O)c2ccc(NC(C)=O)cc2)cc1OC`, the CC50 was 17.7 µM (inactive). As to `COc1ccccc1NC(=O)Cc1nn(C)c(=O)c2ccccc12`, the CC50 was 3.35 µM. `COc1ccc(NC(=O)c2cc(-c3ccccc3OC)on2)cc1`: the CC50 was 1.85 µM. For `O=C(CCCCn1c(=O)c2ccccc2n(Cc2ccc(F)cc2)c1=O)NCc1ccco1` the value was 9.14 µM (inactive). As to `CC(=O)c1cn(CC(=O)Nc2ccccc2)c2ccccc12`, the CC50 was 12.6 µM (inactive). For `CCOC(=O)CSC1=C(C#N)C(c2sccc2C)CC(=O)N1` (centres undefined), the CC50 was 1.91 µM. The value for `CCn1ncc(C2=NOC(C(=O)NCc3ccc(Cl)cc3)C2)c1C` (centres undefined) was 1.61 µM; that for `CCC/C(O)=C1\C(=O)CC(C)(C)CC1=Nc1ccc(OC)cc1OC` was 1.78 µM; that for `COc1ccc2nc(NC(=O)c3cccc(OCc4c(C)noc4C)c3)sc2c1` was 1.6 µM. Regarding `COc1ccc(CNc2cc(C)nc3ncnn23)c(OC)c1`, the CC50 was 3.25 µM. Turning to `CCN(CC)c1ccc(NC(=O)c2ccccc2F)cc1`, the CC50 is > 4.4 µM (inactive). For the compound `Cc1ccc2[nH]c3c(NCc4ccco4)ncnc3c2c1`, the CC50 was 18.7 µM (inactive). In the case of `CS(=O)c1nc(-c2ccc(Br)cc2)cc(-c2ccccc2)c1C#N` (centres undefined), the CC50 is 0.631 µM. Take `Cc1ccc(S(=O)(=O)Nc2ccc3ncccc3c2)cc1`: the CC50 is 10.7 µM (inactive). The value for `N=c1ccn(Cc2ccc(Cl)c(Cl)c2)cc1` was 10.4 µM (inactive); that for `Cc1cc(C)cc(NC2=NC3(CCCCC3)N=C(N)N2)c1` was 4.97 µM; that for `CC(C)C(=O)Nc1ccc(C(=O)NCc2cccnc2)cc1` was 3.87 µM. For `CNC(=O)N(C1=NCC(C)(C)S1)c1ccc(F)c(Cl)c1` the value was 10.4 µM (inactive). Regarding `Cc1cc(C(=O)N2CCN(c3cccc(Cl)c3)CC2)c(C)o1`, the cytotoxic concentration (CC50) is 4.95 µM.

As for `O=C(Nc1ccc(Cl)cn1)c1cccc(F)c1`, the CC50 was > 4.4 µM (inactive). Regarding `Cc1nn(-c2ccccc2)c(C)c1C(=O)Nc1nnc(-c2ccco2)o1`, the CC50 is > 40 µM (inactive). On to `O=C1CCCN1c1ccc(S(=O)(=O)Nc2ccc3c(c2)OCCO3)cc1`, for which the half-maximal cytotoxic concentration (CC50) is 1.78 µM. Turning to `Cc1nn(C)c(C)c1CNC(=O)c1nn2c(c1Cl)NC(c1cccs1)CC2C(F)(F)F` (centres undefined), the CC50 is 15.2 µM (inactive). For `COc1ccccc1-c1cc(C(F)(F)F)nc(S(=O)(=O)CCCC(=O)N2CCOCC2)n1` the value was 2.22 µM. As for `CCN(CC)S(=O)(=O)c1cc(C(=O)Nc2ccncc2)ccc1Cl`, the CC50 is 8.55 µM (inactive). Regarding `O=C(CSc1n[nH]c(-c2ccccc2O)n1)N1CCCc2ccccc21`, the CC50 is 9.5 µM (inactive). For `O=C(Nc1nc2ccccc2[nH]1)c1ccccc1F`, the CC50 is 4.79 µM. For the compound `CC(C)C1N=C2c3ccccc3N=C(SCC(=O)c3ccc(O)c(O)c3)N2C1=O` (centres undefined), the CC50 is 10.2 µM (inactive). Regarding `Cc1cc(NC(=O)c2cc(-c3ccncc3)nc3c(C)cccc23)no1`, the CC50 was 2.29 µM.

As to `CCCCn1c(CN2CCN(c3ccccc3)CC2)nc2c1c(=O)n(C)c(=O)n2C`, the CC50 was 10.4 µM (inactive). Consider `CCCN1C(=O)c2ccccc2NC1c1ccc(OC)cc1O` (centres undefined), for which the CC50 was > 40 µM (inactive). With `Cn1c(=O)c2c(nc(NCc3ccco3)n2C/C=C/c2ccccc2)n(C)c1=O`, the CC50 was 9.36 µM (inactive). `CCN1CCN(S(=O)(=O)c2cc(OCC(=O)NC3CCCCC3)c(C)cc2Cl)CC1`: the CC50 is 3.3 µM. With `COc1cccc(OCc2nc3ncc(Br)cc3[nH]2)c1`, the CC50 is 1.11 µM. With `Cc1ccc(C2NC(=O)c3ccccc3N2)s1` (centres undefined), the CC50 was 4.16 µM. The value for `Cc1cnc(C(=O)Nc2cccc3cccnc23)cn1` was 0.803 µM.
